Assay results reported in patent US20170314056A1, “METHOD OF USING NEAR INFRARED FLUORESCENT DYES FOR IMAGING AND TARGETING CANCERS” (priority 2010, published 2017).
“Also recorded” adds a separate entry of the source. Where two headings read alike, the source gives them in different places.

Assays:
human cancer cells = test: Uptake of NIR dyes by cultured human cancer cell lines (confocal NIR imaging); format: cell-based
Method: Cells (1×10^4/well) were seeded on vitronectin-coated four-well chamber slides (Nalgen Nunc, Naperville, Ill.) and incubated with T-medium containing 5% FBS for 24 h. After the cells had attached to the chamber slides, the cells were washed with PBS (Phosphate Buffered Saline) and exposed to the cyanine dye at a concentration of 20 μM in T-medium. The slides were incubated at 37° C. for 30 min, washed twice with PBS to remove excess dyes, and cells were fixed with 10% formaldehyde at 4° C. The slides were then washed twice with PBS and covered with glass coverslips with an aqueous mounting medium (Sigma-Aldrich, St. Louis, Mo.). Images were recorded by confocal laser microscopy (Zeiss LSM 510 META, Germany) using a 633 nm excitation laser and 670-810 nm long pass filter, or a fluorescence microscope (Olympus 1×71; Olympus, Melville, N.Y.) equipped with a 75 W Xenon lamp and an Indo-Cyanine Green filter cube (excitation 750-800 nm; emission 820-860 nm) (Chroma, Rockingham, Vt.).
Cells (1×10^4/well) were seeded on vitronectin-coated four-well chamber slides (Nalgen Nunc, Naperville, Ill.) and incubated with T-medium containing 5% FBS for 24 h. After the cells had attached to the chamber slides, the cells were washed with PBS (Phosphate Buffered Saline) and exposed to the cyanine dye at a concentration of 20 μM in medium. The slides were incubated at 37° C. for 30 min, washed twice with PBS to remove excess dyes, and fixed with 10% formaldehyde at 4° C. The slides were then washed twice with PBS and covered with glass coverslips with aqueous mounting medium (Sigma-Aldrich, St. Louis, Mo.). Images were recorded by confocal laser microscopy (Zeiss LSM 510 META, Germany) equipped with 633 nm excitation laser and 670-810 nm long pass filter.

ARCaPM cells [1] = test: Live-cell kinetics of dye uptake in prostate cancer cells; format: cell-based, human
Method: ARCaPM Cells were plated on live-cell imaging chambers from World Precision Instrument (Sarasota, Fla.) overnight. Cells were treated with IR-780 with different concentrations and were imaged using a Perkin-Elmer Ultraview ERS spinning discconfocal microscope. This system was mounted on a Zeiss Axiovert 200m inverted microscope equipped with a 37° C. stage warmer, incubator, and CO2 perfusion. A x63 or x100 Zeiss oil objective (numerical aperture, 1.4) was used for all images and a Z-stack was created using the attached piezo electric z-stepper motor. The 633 nm laser line of an argon ion laser (set at 60% power) was used to excite the IR-780 organic dye. For each comparison, the exposure time and laser intensity was kept identical for accurate intensity measurement. Pixel intensity was quantitated using Metamorph 6.1 (Universal Imaging, Downingtown, Pa.) and the mean pixel intensity was generated as grey level using the Region Statistics feature on the software.
(§1) Cells were plated on live-cell imaging chambers (World Precision Instrument, Sarasota, Fla.) overnight. Cells were exposed to cyanine dyes at different concentrations and dye uptake was evaluated by a Perkin-Elmer Ultraview ERS spinning disc confocal microscope. This system was mounted on a Zeiss Axiovert 200m inverted microscope equipped with a 37° C. stage warmer, incubator, and constant CO2 perfusion. A 63× or 100× Zeiss oil objective (numerical aperture, 1.4) was used for live cell images and a Z-stack was created using the attached piezoelectric z-stepper motor. The 633 nm laser line of an argon ion laser (set at 60% power) was used to excite the cyanine dyes. […] For comparative studies, the exposure time and laser intensity were kept identical for accurate intensity measurements. Pixel intensity was quantified using Metamorph 6.1 (Universal Imaging, Downingtown, Pa.) and the mean pixel intensity was generated as grey level using the Region Statistics feature on the software (23). To determine the dye uptake by the mitochondria, the mitochondrial tracking dye Mito Tracker Orange CMTMROS (Molecular Probes, Carlsbad, Calif.) was used. To determine the dye localization in lysosomes, a lysosome tracking dye, Lyso Tracker Green DND-26 (Molecular Probes, Carlsbad, Calif.), was selected. Imaging of mitochondrial and/or lysosome localization of the cyanine dye was conducted under confocal microscopy (24).
To determine if the cyanine dye uptake and accumulation in cancer cells was dependent upon OATPs, cells were preincubated with 250 μM bromosulfophthalein (BSP), a competitive inhibitor of organic anion transporting peptides (OATPs) (25), for 5 minutes prior to incubating the cells with cyanine dyes. The uptake and accumulation of cyanine dyes in the presence and absence of BSP were conducted in the stage warmer incubator for a period of 35 minutes. The levels of cyanine dye taken up and accumulated in normal prostate (P69) and prostate cancer (ARCaPM) cells were determined and compared on a real-time basis.

ARCaPM cells [2] = test: Subcellular co-localization with mitochondria and lysosome tracking dyes; format: cell-based, human; settings: Mito Tracker and Lyso Tracker co-staining
Method: as §1, with “Imaging of mitochondrial and/or lysosome localization of the cyanine dye was conducted under confocal microscopy (24).” left out

[3] = for body weight: daily intraperitoneal injection, Balb/c mice
Method: In control mice, the same volume of PBS was injected. The body weight and lethality of these mice were closely followed for 28 days.

CCCN1C(=CC=C2CCCC(C=CC3=[N+](CCC)c4ccccc4C3(C)C)=C2Cl)C(C)(C)c2ccccc21.[I-] [IR-780, 2-[2-[2-Chloro-3-[(1,3-dihydro-3,3-dimethyl-1-propyl-2H-indol-2-ylidene)ethylidene]-1-cyclohexen-1-yl]ethenyl]-3,3-dimethyl-1-propylindolium iodide]
dye uptake into cancer cells at 0° C. (human cancer cells; 0° C., data not shown): no dye uptake
uptake of dye by human cancer cell lines in culture (human cancer cells; panel of prostate, breast, cervical, lung, liver, pancreatic, renal, bladder and leukemia lines, 20 μM dye, 30 min, confocal microscope): preferentially taken up and retained by cancer but not normal cells; also recorded: a wide range of cancer cells but not normal cells were taking up these dyes; also recorded: significant uptake
uptake of dye in ARCaPM cells compared with normal P69 cells (ARCaPM cells [1]; 20 μM dye, live-cell spinning disc confocal): big difference in IR-780 uptake by cancer cells and normal cells
dye concentration needed to measure uptake into cancer cells in culture (ARCaPM cells [1]; time course and concentration dependence): 20 to 50 µM
subcellular localization of the dye (ARCaPM cells [2]): co-localized with both mitochondria and lysosomes; also recorded: Co-localization of IR-780 and mitochondrial and lysosome were shown
body weight ([3]; 0 day, 1X imaging dose): 19.00 g
body weight ([3]; 0 day, 10X imaging dose): 20.71 g
body weight ([3]; 0 day, 100X imaging dose): 20.14 g
day after injection at which all mice were killed ([3]; 100× excess of the imaging dose): 2 days
body weight ([3]; 1 day, 1X imaging dose): 19.02 g
body weight ([3]; 1 day, 10X imaging dose): 20.69 g
body weight ([3]; 1 day, 100X imaging dose): 0 g
body weight ([3]; 2 day, 1X imaging dose): 19.71 g
body weight ([3]; 2 day, 10X imaging dose): 20.70 g
body weight ([3]; 2 day, 100X imaging dose): 0 g
body weight ([3]; 3 day, 1X imaging dose): 20.01 g
body weight ([3]; 3 day, 10X imaging dose): 21.03 g
body weight ([3]; 3 day, 100X imaging dose): 0 g
body weight ([3]; 4 day, 1X imaging dose): 20.32 g
body weight ([3]; 4 day, 10X imaging dose): 21.24 g
body weight ([3]; 4 day, 100X imaging dose): 0 g
body weight ([3]; 5 day, 1X imaging dose): 20.56 g
body weight ([3]; 5 day, 10X imaging dose): 21.89 g
body weight ([3]; 5 day, 100X imaging dose): 0 g
body weight ([3]; 6 day, 1X imaging dose): 20.97 g
body weight ([3]; 6 day, 10X imaging dose): 22.00 g
body weight ([3]; 6 day, 100X imaging dose): 0 g
body weight ([3]; 7 day, 1X imaging dose): 21.81 g
body weight ([3]; 7 day, 10X imaging dose): 22.56 g
body weight ([3]; 7 day, 100X imaging dose): 0 g
body weight ([3]; 14 day, 1X imaging dose): 23.56 g
body weight ([3]; 14 day, 10X imaging dose): 24.00 g
body weight ([3]; 14 day, 100X imaging dose): 0 g
body weight ([3]; 28 day, 1X imaging dose): 24.44 g
body weight ([3]; 28 day, 10X imaging dose): 24.56 g
body weight ([3]; 28 day, 100X imaging dose): 0 g
